# Active and inactive are the calls of the source. The rule behind the calls is not given here.
# Assays:
# MOLM-13 [1] = assay: Induction of apoptosis in human MOLM-13 cells assessed as necrotic cells at 10 uM incubated for 3 days by Annexin V staining based flow cytometry (reference value: 1.23 %); assay type: functional; settings: time 3 day
# MV4-11 [2] = assay: Cytotoxicity against human MV4-11 cells incubated for 7 days by CCK8 assay; settings: MV4-11, 168 h
# MOLM-13 [3] = assay: Induction of cell differentiation in human MOLM-13 cells assessed as increase in CD14 level upto 100 uM incubated for 3 days by Annexin V staining based flow cytometry; assay type: functional; settings: time 3.0 day
# MOLM-13 [4] = assay: Anti-cancer activity against human MOLM-13 cells assessed as reduction in Meis1 mRNA level upto 100 uM by qRT-PCR analysis relative to control; assay type: functional; design: scale not given: the % may be the effect or the level left; settings: up to 100 µM
# MV4-11 [5] = assay: Induction of cell differentiation in human MV4-11 cells assessed as increase in CD11b level upto 400 uM incubated for 7 days […]; assay type: functional, cell-based; settings: time 7.0 day
# MV4-11 [6] = assay: Antitumor activity against human MV4-11 cells xenografted in NOD-SCID mouse assessed as decrease in leukemic cells in blood at 78.7 mg/kg, sc measured after 33 days relative to control; assay type: functional; design: scale not given: the % may be the effect or the level left; settings: time 33 day
# MOLM-13 [7] = assay: Induction of apoptosis in human MOLM-13 cells assessed as late apoptotic cells at 100 uM incubated for 3 days by Annexin V staining based flow cytometry (reference value: 3.29 %); assay type: functional; settings: time 3 day
# MV4-11 [8] = assay: Induction of apoptosis in human MV4-11 cells assessed as necrotic cells at 30 uM incubated for 3 days by Annexin V staining based flow cytometry (reference value: 2.45 %); assay type: functional; settings: time 3 day
# MV4-11 [9] = assay: Induction of apoptosis in human MV4-11 cells assessed as necrotic cells at 100 uM incubated for 3 days by Annexin V staining based flow cytometry (reference value: 2.45 %); assay type: functional; settings: time 3 day
# MOLM-13 [10] = assay: Induction of apoptosis in human MOLM-13 cells assessed as increase in p53 level upto 100 uM incubated for 3 days by Western blot analysis; assay type: functional, cell-based; settings: time 3.0 day
# MV4-11 [11] = assay: Induction of apoptosis in human MV4-11 cells assessed as necrotic cells at 10 uM incubated for 3 days by Annexin V staining based flow cytometry (reference value: 2.45 %); assay type: functional; settings: time 3 day
# MV4-11 [12] = assay: Anti-cancer activity against human MV4-11 cells assessed as reduction in Meis1 mRNA level upto 100 uM by qRT-PCR analysis; assay type: functional, cell-based
# MV4-11 [13] = assay: Antitumor activity against human MV4-11 cells xenografted in NOD-SCID mouse assessed as decrease in leukemic cells in spleen at 78.7 mg/kg, sc measured after 33 days relative to control; assay type: functional; design: scale not given: the % may be the effect or the level left; settings: time 33 day
# MV4-11 [14] = assay: Induction of apoptosis in human MV4-11 cells assessed as early apoptotic cells at 30 uM incubated for 3 days by Annexin V staining based flow cytometry (reference value: […] %); assay type: functional; settings: time 3 day
# [15] = target: T1, MAO-A (amine oxidase [flavin-containing] A) (Homo sapiens, UniProt P21397); assay: Inhibition of N-terminal FLAG-tagged recombinant human MAO-A expressed in baculovirus infected Sf9 cells upto 10 uM preincubated for 15 mins followed by addition of luciferin derivative substrate measured after 1 hr by Luciferase Glo assay relative to control; settings: probe luciferin derivative substrate, time 75 min
# T1 sequence (P21397 whole entry): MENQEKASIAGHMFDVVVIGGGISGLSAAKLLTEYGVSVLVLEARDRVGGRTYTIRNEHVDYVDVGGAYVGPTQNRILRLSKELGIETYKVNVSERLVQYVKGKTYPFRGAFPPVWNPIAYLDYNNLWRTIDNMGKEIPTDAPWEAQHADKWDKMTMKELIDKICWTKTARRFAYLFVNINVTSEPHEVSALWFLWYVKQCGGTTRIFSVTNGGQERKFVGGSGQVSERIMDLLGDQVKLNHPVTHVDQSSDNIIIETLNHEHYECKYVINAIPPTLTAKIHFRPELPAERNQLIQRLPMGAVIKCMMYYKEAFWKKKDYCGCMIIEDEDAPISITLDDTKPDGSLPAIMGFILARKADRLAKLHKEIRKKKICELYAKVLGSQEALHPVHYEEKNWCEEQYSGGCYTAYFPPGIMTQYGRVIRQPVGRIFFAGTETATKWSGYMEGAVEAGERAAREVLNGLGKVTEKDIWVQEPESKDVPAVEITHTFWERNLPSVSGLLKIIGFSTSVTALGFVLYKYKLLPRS
# MV4-11 [16] = assay: Induction of apoptosis in human MV4-11 cells assessed as late apoptotic cells at 100 uM incubated for 3 days by Annexin V staining based flow cytometry (reference value: 7.29 %); assay type: functional; settings: time 3 day
# MV4-11 [17] = assay: Induction of apoptosis in human MV4-11 cells assessed as late apoptotic cells at 30 uM incubated for 3 days by Annexin V staining based flow cytometry (reference value: 7.29 %); assay type: functional; settings: time 3 day
# MV4-11 [18] = assay: Induction of apoptosis in human MV4-11 cells assessed as viable cells at 10 uM incubated for 3 days by Annexin V staining based flow cytometry (reference value: 89.63 %); assay type: functional; settings: MV4-11, 72 h, time 3 day, read-out: Activity
# MOLM-13 [19] = assay: Cytotoxicity against human MOLM-13 cells incubated for 7 days by CCK8 assay; settings: MOLM-13, 168 h
# MV4-11 [20] = assay: Antitumor activity against human MV4-11 cells xenografted in NOD-SCID mouse assessed as increase in RBC at 50 to 78.7 mg/kg, sc measured after 33 days; assay type: functional, organism-based; settings: dose 50-78.7 mg/kg, time 33.0 day
# MV4-11 [21] = assay: Anti-cancer activity against human MV4-11 cells assessed as reduction in HoxA9 mRNA level upto 100 uM by qRT-PCR analysis; assay type: functional, cell-based
# MOLM-13 [22] = assay: Induction of apoptosis in human MOLM-13 cells assessed as early apoptotic cells at 10 uM incubated for 3 days by Annexin V staining based flow cytometry (reference value: 4.94 %); assay type: functional; settings: time 3 day
# MOLM-13 [23] = assay: Induction of cell differentiation in human MOLM-13 cells assessed as CD11b level at 100 uM incubated for 3 days by Annexin V staining based flow cytometry (reference value: 13.77 %); assay type: functional; settings: time 3 day
# MOLM-13 [24] = assay: Induction of apoptosis in human MOLM-13 cells assessed as late apoptotic cells at 30 uM incubated for 3 days by Annexin V staining based flow cytometry (reference value: 3.29 %); assay type: functional; settings: time 3 day
# MV4-11 [25] = assay: Anti-invasive activity against human MV4-11 cells xenografted in NOD-SCID mouse assessed as reduction in tumor formation in ovarian tissue at 78.7 mg/kg, sc measured after 33 days; assay type: functional, organism-based; settings: time 33.0 day
# MOLM-13 [26] = assay: Induction of apoptosis in human MOLM-13 cells assessed as early apoptotic cells at 100 uM incubated for 3 days by Annexin V staining based flow cytometry (reference value: 4.94 %); assay type: functional; settings: time 3 day
# [27] = Toxicity in NOD-SCID mouse xenografted with human MV4-11 cells assessed as change in fur morphology at 50 to 78.7 mg/kg, sc measured after 33 days; assay type: organism-based; settings: in vivo, 792 h, dose 50-78.7 mg/kg, time 33 day
# MOLM-13 [28] = assay: Induction of apoptosis in human MOLM-13 cells assessed as early apoptotic cells at 30 uM incubated for 3 days by Annexin V staining based flow cytometry (reference value: 4.94 %); assay type: functional; settings: time 3 day
structure (smiles),measurement,setting,value
O=C(O)C(F)(F)F.O=[N+]([O-])c1ccc(C2NCCc3cc(O)c(O)cc32)cc1 (stereo not drawn),Activity,MOLM-13 [1],6.32%
same,IC50,MV4-11 [2],42 µM
same,Activity,MOLM-13 [3],Active
same,Activity,MOLM-13 [4],~60%
same,Activity,MV4-11 [5],Active
same,Activity,MV4-11 [6],81%
same,Activity,MOLM-13 [7],18.07%
same,Activity,MV4-11 [8],6.36%
same,Activity,MV4-11 [9],15.9%
same,Activity,MOLM-13 [10],Active
same,Activity,MV4-11 [11],4.05%
same,Activity,MV4-11 [12],Active
same,Activity,MV4-11 [13],87%
same,Activity,MV4-11 [14],7.75%
same,"inhibition at 1 h, up to 10 µM",[15],< 30%
same,Activity,MV4-11 [16],32.33%
same,Activity,MV4-11 [17],28.14%
same,viability at 10 µM,MV4-11 [18],66.2%
same,IC50,MOLM-13 [19],83 µM
same,Activity,MV4-11 [20],Active
same,Activity,MV4-11 [21],Active
same,Activity,MOLM-13 [22],7.17%
same,Activity,MOLM-13 [23],93.75%
same,Activity,MOLM-13 [24],15.99%
same,Activity,MV4-11 [25],Active
same,Activity,MOLM-13 [26],9.46%
same,Activity,[27],Toxic
same,Activity,MOLM-13 [28],7.55%

# — ChEMBL document CHEMBL5620367, “Discovery of new tetrahydroisoquinolines as potent and selective LSD1 inhibitors for the treatment of MLL-rearranged leukemia” (Eur J Med Chem, 2023)
